Biological target: T1, ATP citrate lyase (ACLY) (Homo sapiens, UniProt P53396)
T1 construct: ACLY (His)
T1 sequence (P53396 1-1101): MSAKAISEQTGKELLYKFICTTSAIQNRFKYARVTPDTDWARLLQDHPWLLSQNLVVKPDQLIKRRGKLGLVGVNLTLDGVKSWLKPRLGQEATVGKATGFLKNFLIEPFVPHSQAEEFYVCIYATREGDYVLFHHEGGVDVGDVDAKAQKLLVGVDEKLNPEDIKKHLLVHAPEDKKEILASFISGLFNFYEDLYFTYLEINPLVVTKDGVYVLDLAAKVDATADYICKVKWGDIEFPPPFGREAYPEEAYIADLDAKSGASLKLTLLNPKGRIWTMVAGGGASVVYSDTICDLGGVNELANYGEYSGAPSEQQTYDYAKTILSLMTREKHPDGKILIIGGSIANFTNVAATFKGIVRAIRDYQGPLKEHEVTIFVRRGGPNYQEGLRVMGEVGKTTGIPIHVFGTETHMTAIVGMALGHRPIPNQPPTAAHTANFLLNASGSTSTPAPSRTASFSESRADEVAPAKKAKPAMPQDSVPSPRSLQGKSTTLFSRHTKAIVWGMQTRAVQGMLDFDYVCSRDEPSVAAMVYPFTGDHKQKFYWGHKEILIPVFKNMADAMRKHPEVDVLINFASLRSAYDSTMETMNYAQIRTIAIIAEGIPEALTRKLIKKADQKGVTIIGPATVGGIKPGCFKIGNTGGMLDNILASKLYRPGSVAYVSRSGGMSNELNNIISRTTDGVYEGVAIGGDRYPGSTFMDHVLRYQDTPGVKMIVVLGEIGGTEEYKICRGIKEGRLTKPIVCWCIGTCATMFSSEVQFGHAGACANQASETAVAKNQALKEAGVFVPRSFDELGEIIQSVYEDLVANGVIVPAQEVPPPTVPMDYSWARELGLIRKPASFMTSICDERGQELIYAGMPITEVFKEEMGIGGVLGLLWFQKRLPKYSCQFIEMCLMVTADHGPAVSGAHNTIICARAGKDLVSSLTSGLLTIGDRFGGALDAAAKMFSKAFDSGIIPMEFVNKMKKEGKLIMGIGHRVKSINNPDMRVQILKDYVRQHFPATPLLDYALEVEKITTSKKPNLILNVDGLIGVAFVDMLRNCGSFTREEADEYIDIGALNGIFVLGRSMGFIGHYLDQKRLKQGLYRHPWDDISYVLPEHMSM
Test: ADP-Glo ADP-coupled enzymatic assay
Format: biochemical

IC50	SMILES
36.3 ± 6.24 µM	CC(/C=C/C=C(\C)C(=O)O[C@@H]1O[C@H](CO[C@@H]2O[C@H](CO)[C@@H](O)[C@H](O)[C@H]2O)[C@@H](O)[C@H](O)[C@H]1O)=C\C=C\C=C(C)\C=C\C=C(/C)C(=O)O[C@@H]1O[C@H](CO[C@@H]2O[C@H](CO)[C@@H](O)[C@H](O)[C@H]2O)[C@@H](O)[C@H](O)[C@H]1O [compound 1, crocin I]
29.7 ± 7.41 µM	CC(/C=C/C=C(\C)C(=O)O[C@@H]1O[C@H](CO)[C@@H](O)[C@H](O)[C@H]1O)=C\C=C\C=C(C)\C=C\C=C(/C)C(=O)O[C@@H]1O[C@H](CO[C@@H]2O[C@H](CO)[C@@H](O)[C@H](O)[C@H]2O)[C@@H](O)[C@H](O)[C@H]1O [compound 2, crocin II]
